Test results taken from patent publication US10806694B2, “Nanoparticles for photodynamic therapy, X-ray induced photodynamic therapy, radiotherapy, radiodynamic therapy, chemotherapy, immunotherapy, and any combination thereof” (The University of Chicago, priority 2014, dated 2020).

What was measured:
CT26 cells [1] = experiment: Apoptosis after PDT, Annexin V/dead cell kit, flow cytometry; assay type: cell-based, murine; conditions: 5 μM
Description: (§1) CT26 cells were incubated with 5 μM DBC-UiO or H2DBC followed by light irradiation at 0.1 W/cm^2 for 15 min (90 J/cm^2). The apoptosis induced by PDT treatment was determined with the Alexa Fluor 488 Annexin V/dead cell apoptosis kit by flow cytometry. […] Calreticulin (CRT) is a distinct biomarker exposed on the surface of cells undergoing ICD. The CRT expression was determined by flow cytometry and immunofluorescence to assess the ICD induced by DBC-UiO induced PDT. CT26 cells were treated with 5 μM DBC-UiO or H2DBC followed by light irradiation at 0.1 W/cm^2 for 15 min (90 J/cm^2). For flow cytometry analysis, cells were collected and stained with Alexa Fluor 488-CRT antibody and propidium iodide (PI). The fluorescence intensity of stained cells was gated on PI-negative cells. For immunostaining analysis, the cells were stained with AlexaFluor 488-CRT conjugated antibody and DAPI nuclei stain, and observed using confocal laser scanning microscopy (CLSM).

CT26 cells [2] = experiment: Calreticulin (CRT) surface expression after PDT (immunogenic cell death); assay type: cell-based, murine; conditions: 5 μM
Description: as §1

CT26 cells [3] = experiment: In vitro PDT cytotoxicity; assay type: cell-based, murine; conditions: with irradiation, LED 90 J/cm^2 (0.1 W/cm^2, 15 min), 640 or 650 nm
Description: (§2) The tumor cell uptake of NMOFs was evaluated by incubating CT26 cells with DBP-UiO or DBC-UiO at a Hf concentration of 50 μM for 4 h. […] The in vitro PDT efficacy of DBC-UiO against colon cancer cells was investigated and compared with DBP-UiO and their corresponding free ligands. […] DBP-UiO and […]: 640 nm; DBC-UiO and […]: 650 nm). DBC-UiO outperformed DBP-UiO by effectively killing both cancer cell lines at low NMOF and light doses.

HT29 cells = experiment: In vitro PDT cytotoxicity; assay type: cell-based, human; conditions: with irradiation, LED 90 J/cm^2 (0.1 W/cm^2, 15 min), 640 or 650 nm
Description: as §2

[4] = tested on: human head and neck cancer cells SQ20B; experiment: In vitro PDT cytotoxicity (MTS); assay type: cell-based; conditions: 5-100 μM ligand, 640 nm LED 100 mW/cm^2, 15 min (90 J/cm^2) or 30 min (180 J/cm^2)
Description: The cytotoxicity of DBP-UiO and H2DBP was evaluated in human head and neck cancer cells SQ20B which are resistant to cisplatin and conventional radiotherapy. SQ20B cells were seeded on 96-well plates at 2000 cells/well. The cells were treated with DBP-UiO and H2DBP at various ligand concentrations (5, 10, 20, 50 and 100 μM base on ligand concentrations) after a 24-h incubation. A further incubation of 4 h was allowed, followed by replacing the culture medium with 100 μL of fresh DMEM/F12 medium. The cells were irradiated with LED light (640 nm) at 100 mW/cm^2 for 15 min (total light dose 90 J/cm^2) or 30 min (total light dose 180 J/cm^2), respectively. The cells without irradiation treatment served as controls. The cells were further incubated to achieve a total incubation time of 72 h with DBP-UiO or H2DBP. The cell viability was detected by (3-(4,5-dimethylthiazol-2-yl)-5-(3-carboxymethoxyphenyl)-2-(4-sulfophenyl)-2H-tetra-zolium) (MTS) assay (Promega, Madison, Wis., United States of America).
To further confirm the PDT efficacy of DBP-UiO, SQ20B cancer cells were treated with H2DBP or DBP-UiO at various concentrations (5, 10, 20, 50 and 100 μM based on ligand concentrations), the cells were irradiated with LED light (640 nm, 100 mW/cm^2) for 15 min (total light dose 90 J/cm^2) or 30 min (total light dose 180 J/cm^2), respectively.

[5] = tested on: SQ20B subcutaneous xenograft murine models; experiment: In vivo PDT efficacy; parameters: species or system mice; conditions: 3.5 mg/kg intratumoral, 180 J/cm^2, single treatment
Description: The PDT efficacy of DBP-UiO was investigated using SQ20B subcutaneous xenograft murine models. Tumor bearing mice were established by subcutaneous inoculation of SQ20B cell suspension (5×10^6 cells per mouse) into the right flank region of 6-week athymic female nude mice. Three groups were included for comparison: PBS as control, H2DBP, and DBP-UiO. When tumors reached 100 mm^3, PBS, H2DBP, and DBP-UiO were intratumorally injected to animals at a DBP dose of 3.5 mg/kg. At 12 h post-injection, mice were anesthetized with 2% (v/v) isoflurane and tumors were irradiated with a 640 nm LED for 30 min. The light intensity was measured as 100 mW/cm^2, and the total light dose was 180 J/cm^2. Both injection and PDT were performed once.
To evaluate the therapeutic efficacy, tumor growth and body weight evolution were monitored. The tumor size was measured with a digital caliper every day. Tumor volumes were calculated as follows: (width^2×length)/2. Finally, all mice were sacrificed on Day 8, and the excised tumors were photographed and weighed. Tumors were fixed with formalin. Paraffin-embedded 5 μm tumor sections were stained with hematoxylin and erosin (H&E) and observed with light microscopy (Pannoramic Scan Whole Slide Scanner, Perkin Elmer, Waltham, Mass., United States of America).
In vivo experiments on SQ20B subcutaneous xenograft murine models were carried out. […]

| Compound | apoptosis or necrosis (CT26 cells [1]; in the dark) | apoptosis (CT26 cells [1]; light irradiation 90 J/cm^2) | surface CRT expression (CT26 cells [2]; light irradiation 90 J/cm^2) | surface CRT expression (CT26 cells [2]; without light irradiation) | IC50 (CT26 cells [3]) [µM] | IC50 (HT29 cells) [µM] | PDT efficacy (cell viability) [4] | tumor growth [5] |
| --- | --- | --- | --- | --- | --- | --- | --- | --- |
| 5, 15-di(p-benzoato)chlorin [H2DBC] | No apoptosis or necrosis was observed | significant amounts of cells underwent apoptosis | significant amounts of CRT were detected | no surface CRT expression | 8.5 ± 0.1 | 7.5 ± 2.3 | – | – |
| O=C(O)c1ccc(-c2c3nc(cc4ccc([nH]4)c(-c4ccc(C(=O)O)cc4)c4nc(cc5ccc2[nH]5)C=C4)C=C3)cc1 [H2DBP, 5,15-di(p-benzoato)porphyrin] | – | – | – | – | 20 ± 3.1 | 17 ± 4 | moderate PDT efficacy only at 20 μM dose with 30 min light irradiation | slightly suppressed after PDT, however accelerated after 5 days and exhibited no difference to the control group at the endpoint |
